The results in this text go back to patent US20260207604A1, “COMPOUND AND USE THEREOF” (ONQUALITY PHARMACEUTICALS CHINA LTD., priority 2022, published 2026).

In series [1] the test system is Irinotecan-induced diarrhea model. Kind of series: Irinotecan-induced diarrhea model. It is filed as in vivo, Balb/c mice. As to conditions: irinotecan 230 mg/kg once a day, 1 day, mice. The text has this:
Irinotecan-induced diarrhea and/or constipation models were employed as additional in vivo experimental models to evaluate the activity of the compounds of the present application.
Balb/c mice (20-25 g, 7-8 weeks old, Jihui) were acclimated for one week and then randomly assigned to 3 groups (n=10 per group): control group, irinotecan group, and CDK inhibitor group. Control group: received the same vehicle as the CDK inhibitor group by oral gavage, followed by injection of the same vehicle as the irinotecan group; irinotecan group: received the same vehicle by oral gavage as the CDK inhibitor group, followed by injection of irinotecan; CDK inhibitor group: received oral administration of the CDK inhibitor, followed by injection of irinotecan.
In the irinotecan group, approximately 6 to 9 out of 10 mice developed diarrhea. From Day 1 to Day 7, the severity of diarrhea in each mouse was evaluated using the following scoring criteria:
The diarrhea scoring system was based on the method by Akinobu Kurita (Cancer Chemother Pharmacol 2000; 46:211-20), Grade 0: normal stool; Grade 1: mild diarrhea, slightly soft stool and wet stool; Grade 2: moderate diarrhea, loose stool with slight perianal staining; Grade 3: severe diarrhea, loose watery stool with severe perianal staining. Calculate the diarrhea Relief rate of compound treatment. Relief rate (%)=(diarrhea score of irinotecan group−diarrhea score of CDK inhibitor group)/diarrhea score of irinotecan group×100%.

A short description of series [2]: Single-dose intravenous and oral pharmacokinetic study in rats. It is filed as in vivo, Sprague-Dawley (SD) rats. The note with it: male SD rats. On the procedure:
Six male Sprague-Dawley (SD) rats were randomly divided into two groups, with three rats in each group. Compound 1 was administered either by intravenous injection at a dose of 2 mg/kg or by oral gavage at a dose of 10 mg/kg. The dosing volumes were 5 mL/kg for intravenous administration and 10 mL/kg for oral administration, with purified water used as the solvent. For the intravenous group, blood samples were collected at 0.083, 0.25, 0.5, 1, 2, 4, 6, 8, and 24 hours post-dose. For the oral group, blood samples were collected at 0.25, 0.5, 1, 2, 4, 6, 8, and 24 hours post-dose. Plasma samples were prepared by centrifugation and stored at −70° C. The plasma concentration of Compound 1 was determined using LC-MS/MS.

A further series addresses CDK4/cyclin D (Homo sapiens, UniProt P11802). Briefly: KinaseProfile radiometric protein kinase assay, CDK4/cyclin D. It is filed as biochemical. On the procedure: The KinaseProfile radiometric protein kinase assay was used to evaluate the inhibitory activity of the compounds against CDK2/cyclin E, CDK4/cyclin D, CDK6/cyclin D, CDK7/cyclin H and CDK9/cyclin T.
The compounds were prepared in 100% DMSO at a final 50× stock concentration. The working stock solution was added as the first component to the assay wells. CDK2/cyclin E, CDK4/cyclin D, CDK6/cyclin D, CDK7/cyclin H, and CDK9/cyclin T were added in their respective kinase buffers: (CDK4: 8 mM MOPS pH 7.0, 0.2 mM EDTA, 0.03% BSA, 0.03% Tween 20, 20 mM DTT, and 0.2 mg/ml Rb fragment, 10 mM Magnesium acetate; CDK2, CDK6: 8 mM MOPS pH 7.0, 0.2 mM EDTA, 0.1 mg/mL histone H1, 10 mM Magnesium acetate; CDK7: 8 mM MOPS pH 7.0, 0.2 mM EDTA, 500 μM peptide, 10 mM Magnesium acetate; CDK9: 8 mM MOPS pH 7.0, 0.2 mM EDTA, 100 μM […], 10 mM Magnesium acetate) and [γ-^33 P-ATP] was included in the reaction mixture. The reaction was initiated by the addition of the Mg/ATP mixture and incubated at room temperature for 40 minutes. The reaction was terminated by the addition of 0.5% phosphoric acid. Then, 10 μL of the reaction mixture was spotted onto P30 filter pads, washed four times (1 minute each) with 0.425% phosphoric acid, followed by a single wash with methanol. The pads were then dried and counted. The data were recorded, inhibition rates were calculated, and IC50 values were determined accordingly. Table 2 summarizes the in vitro enzymatic inhibitory activity of the compounds of the present application.

Series [3] deals with 5-FU-induced diarrhea model. Kind of series: 5-FU-induced diarrhea model, 5-FU 1-day model. It is filed as in vivo, Balb/c mice. The note with it: 5-FU 175 mg/kg once a day, mice. The source says:
The 5-FU-induced diarrhea model was used as an experimental model of the present invention to evaluate the in vivo activity of the compounds.
Balb/c mice (20-25 g, 7-8 weeks old, Jihui) were acclimated for one week and then randomly assigned to 3 groups (n=10 per group): control group, 5-FU group, and CDK inhibitor group. The control group received the same vehicle as the CDK inhibitor group by oral gavage, followed by injection of the same vehicle as the 5-FU group. The 5-FU group received the same vehicle by oral gavage as the CDK inhibitor group, followed by 5-FU injection. The CDK inhibitor group received oral administration of the CDK inhibitor, followed by 5-FU injection. From day 1 to day 7, the severity of diarrhea was assessed for each mouse according to the diarrhea scoring system.
The diarrhea scoring system was based on the method by Akinobu Kurita (Cancer Chemother Pharmacol 2000; 46:211-20), Grade 0: normal stool; Grade 1: mild diarrhea, slightly soft stool and wet stool; Grade 2: moderate diarrhea, loose stool with slight perianal staining; Grade 3: severe diarrhea, loose watery stool with severe perianal staining.
The diarrhea relief rate (%) was calculated as follows: […]

Where [4] appears, read: 5 mg/kg oral, 4 hours before and 8 hours after irinotecan.
Where [5] appears, read: 25 mg/kg oral, 6 hours before and 6 hours after irinotecan.
[6] abbreviates: 50 mg/kg oral, 4 hours before and 8 hours after irinotecan.
[7] abbreviates: 100 mg/kg oral, 6 hours before and 6 hours after irinotecan.
The mark [8] stands for this setting: Sprague-Dawley, rat, IV 2 mg/kg, plasma.
The mark [9] stands for this setting: 50 mg/kg oral, 8 hours before 5-FU and 4 hours after 5-FU.
[10] abbreviates: 25 mg/kg oral, 4 hours before and 8 hours after irinotecan.
The mark [11] stands for this setting: 50 mg/kg oral, 8 hours before irinotecan and 4 hours after irinotecan.
The mark [12] stands for this setting: 100 mg/kg oral, 12 hours before irinotecan.
The mark [13] stands for this setting: 25 mg/kg oral, 8 hours before 5-FU and 4 hours after 5-FU.
The mark [14] stands for this setting: 50 mg/kg oral, 6 hours before and 6 hours after 5-FU.
The mark [15] stands for this setting: 10 mg/kg oral, 10 hours before 5-FU and 2 hours after 5-FU.
[16] abbreviates: 25 mg/kg oral, 6 hours before and 6 hours after 5-FU.

Sequence of CDK4/cyclin D (P11802 whole entry, the tested form may be a part): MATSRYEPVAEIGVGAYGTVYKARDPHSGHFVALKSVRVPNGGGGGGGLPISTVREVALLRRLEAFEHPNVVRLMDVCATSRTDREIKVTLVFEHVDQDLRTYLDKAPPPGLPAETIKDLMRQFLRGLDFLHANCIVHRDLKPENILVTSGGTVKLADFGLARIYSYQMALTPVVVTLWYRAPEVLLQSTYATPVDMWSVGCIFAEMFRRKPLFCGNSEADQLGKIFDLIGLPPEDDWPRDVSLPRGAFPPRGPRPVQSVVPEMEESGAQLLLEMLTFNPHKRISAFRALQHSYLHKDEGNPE
Sequence of CDK4/cyclin D (P30281 whole entry partner, the tested form may be a part): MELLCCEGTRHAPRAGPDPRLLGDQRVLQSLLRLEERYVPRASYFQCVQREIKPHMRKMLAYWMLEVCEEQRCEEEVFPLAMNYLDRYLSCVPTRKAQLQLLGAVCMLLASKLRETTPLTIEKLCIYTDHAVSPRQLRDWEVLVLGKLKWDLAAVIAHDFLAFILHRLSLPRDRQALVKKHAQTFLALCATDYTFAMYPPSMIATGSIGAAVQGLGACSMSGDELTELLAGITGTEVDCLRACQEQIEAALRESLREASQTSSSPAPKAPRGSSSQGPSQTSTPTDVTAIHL

Turning to `CC(=O)c1c(C)c2c(n(C3CCCC3)c1=O)=NC(Nc1ccc(N3CCN(S(=O)(=O)NCCN)CC3)cn1)NC=2` (stereo not drawn) [Compound 1], the “diarrhea relief rate” value in series [1] (setting [4]) is 30%; in series [1] (10 mg/kg oral, 6 hours before and 6 hours after irinotecan), 33.3%; in series [1] (setting [5]), 50%; in series [1] (setting [6]) it was 37.5%; in series [1] (100 mg/kg oral, 4 hours before and 8 hours after irinotecan) it was 30%; in series [1] (setting [7]) it was 20%. The diarrhea relief rate in series [3] (5 mg/kg oral, 8 hours before 5-FU and 4 hours after 5-FU) is on record as 50%; in series [3] (10 mg/kg oral, 6 hours before and 6 hours after 5-FU) it was 40%; in series [3] (25 mg/kg oral, 12 hours before 5-FU), 85%; in series [3] (setting [9]), 60%; in series [3] (75 mg/kg oral, 6 hours before and 6 hours after 5-FU), 50%; in series [3] (100 mg/kg oral, 8 hours before 5-FU and 4 hours after 5-FU), 75%. For the same molecule, the AUC(0-t) (as a rule, the area under the concentration-time curve up to a stated or last time point) in series [2] (setting [8]) was determined as 602 ± 161 ng·h/mL. Further, the clearance in series [2] (setting [8]) was 56.7 ± 17.3 mL/min/kg. The half-life (commonly the time needed for the level to fall by half in the phase considered) in series [2] (setting [8]) was 5.55 ± 0.503 h. In series [2] (Sprague-Dawley, rat, IV 2 mg/kg, plasma, read-out: Vdss), the Vd came out at 9.61 ± 5.43 L/kg. Moreover, the “plasma concentrations following oral administration” value in series [2] (PO 10 mg/kg, all samples 0.25-24 h, below the lower limit of quantification) is on record as below 1 ng/mL. The IC50 (commonly the concentration that inhibits the measured activity by half) at CDK4/cyclin D was below 50 nM.

In the case of `CC(=O)c1c(C)c2cnc(Nc3ccc(N4CCN(S(=O)(=O)NCC(C)(C)N)CC4)cn3)nc2n(C2CCCC2)c1=O` [Compound 2], the “diarrhea relief rate” value amounted to 70% in series [1] (setting [10]); 60% in series [1] (setting [5]); 75% in series [1] (setting [11]); 50% in series [1] (setting [12]); 60% in series [3] (setting [13]); 40% in series [3] (25 mg/kg oral, 12 hours before and 12 hours after 5-FU). In addition, the diarrhea relief rate in series [3] (setting [14]) worked out at 60%; in series [3] (100 mg/kg oral, 24 hours before 5-FU and 0 hours after 5-FU), 40%. Besides, the IC50 against CDK4/cyclin D is below 50 nM.

As to `CC(=O)c1c(C)c2cnc(Nc3ccc(N4CCN(S(=O)(=O)NCC(C)(C)CN)CC4)cn3)nc2n(C2CCCC2)c1=O` [Compound 6], the “diarrhea relief rate” value is 50% in series [1] (10 mg/kg oral, 4 hours before and 8 hours after irinotecan); 85% in series [1] (setting [10]); 60% in series [1] (setting [5]); 40% in series [1] (setting [12]); 60% in series [3] (setting [15]); 75% in series [3] (setting [13]). Besides, the diarrhea relief rate is on record as 80% in series [3] (setting [14]) and 50% in series [3] (100 mg/kg oral, 12 hours before 5-FU). On CDK4/cyclin D, this molecule showed an IC50 below 50 nM.

For the molecule `CC(=O)c1c(C)c2cnc(Nc3ccc(N4CCN(S(=O)(=O)NCC(C)N)CC4)cn3)nc2n(C2CCCC2)c1=O` (stereo not drawn) [Compound 3], the “diarrhea relief rate” value came out at 25% in series [1] (setting [4]); 60% in series [1] (25 mg/kg oral, 10 hours before and 2 hours after irinotecan); 70% in series [1] (setting [6]); 50% in series [1] (setting [7]); 50% in series [3] (setting [15]); 40% in series [3] (25 mg/kg oral, 2 hours before 5-FU and 10 hours after 5-FU). The diarrhea relief rate in series [3] (setting [13]) is reported as 60%; in series [3] (150 mg/kg oral, 12 hours before 5-FU and 0 hours after 5-FU), 50%. In addition, the IC50 at CDK4/cyclin D is below 50 nM.

On to `CC(=O)c1c(C)c2cnc(Nc3ccc(N4CCN(S(=O)(=O)NCC(C)CN)CC4)cn3)nc2n(C2CCCC2)c1=O` (stereo not drawn) [Compound 5], for which the “diarrhea relief rate” value in series [1] (setting [4]) is reported as 25%; in series [1] (setting [5]), 50%; in series [1] (setting [11]) it was 50%; in series [1] (100 mg/kg oral, 10 hours before irinotecan and 2 hours after irinotecan), 35%; in series [3] (10 mg/kg oral, 12 hours before 5-FU and 0 hours after 5-FU) it was 25%; in series [3] (setting [16]), 40%. The diarrhea relief rate in series [3] (setting [9]) worked out at 30%; in series [3] (100 mg/kg oral, 4 hours before 5-FU and 8 hours after 5-FU) it was 40%. Besides, the IC50 against CDK4/cyclin D is below 100 nM.

Take `CC(=O)c1c(C)c2cnc(Nc3ccc(N4CCN(S(=O)(=O)NCCCN)CC4)cn3)nc2n(C2CCCC2)c1=O` [Compound 4]: the “diarrhea relief rate” value in series [1] (25 mg/kg oral, 2 hours before and 10 hours after irinotecan) is reported as 30%; in series [1] (setting [6]), 60%; in series [1] (50 mg/kg oral, 6 hours before and 6 hours after irinotecan), 60%; in series [1] (150 mg/kg oral, 10 hours before irinotecan), 45%; in series [3] (10 mg/kg oral, 8 hours before 5-FU and 4 hours after 5-FU), 25%; in series [3] (setting [16]), 80%. Also, the diarrhea relief rate came to 70% in series [3] (50 mg/kg oral, 12 hours before 5-FU); 25% in series [3] (10 0 mg/kg oral, 8 hours before 5-FU and 4 hours after 5-FU). The molecule also had an IC50 on CDK4/cyclin D below 50 nM.
